# *1 amine or outer side, *2 acyl side, *3 side chain or, on linkers, in order; H or OH if unused. Where a SMILES comes first, the peptide text is derived from it. [ ]: non-standard residue; d: D form. Hexanoyl(5S-NH,4S-OH,6-Ph) = O=C(CC[C@H](O)[C@H](Cc1ccccc1)N[*:1])[*:2]; Glyψ(E-CHCH)Leu = CC(C)C[C@H](/C=C/CN[*:1])C(=O)[*:2]; X2 = O=C(/C=C/[C@@H](O)[C@H](Cc1ccccc1)N[*:1])[*:2]; X5 = O=C(/C=C/[C@H](O)[C@H](Cc1ccccc1)N[*:1])[*:2]; X3 = O=C(CC[C@@H](O)[C@H](Cc1ccccc1)N[*:1])[*:2]; X7 = O=C(C/C=C/[C@H](Cc1ccccc1)N[*:1])[*:2]; Phe(3-Me) = Cc1cccc(C[C@H](N)C(=O)O)c1; Phe(4-Me) = Cc1ccc(C[C@H](N)C(=O)O)cc1; X1 = CC(C)C[C@H](CCCN[*:1])C(=O)[*:2]; Phe(2-Me) = Cc1ccccc1C[C@H](N)C(=O)O; Arg(Me) = CNC(=N)NCCC[C@H](N)C(=O)O; Dap(CONH2) = NC(=O)NC[C@H](N)C(=O)O; Ala(cPr) = N[C@@H](CC1CC1)C(=O)O; Hyp = O=C(O)[C@@H]1C[C@@H](O)CN1; αMeF = C[C@](N)(Cc1ccccc1)C(=O)O; Cha = N[C@@H](CC1CCCCC1)C(=O)O
# System: metastin receptors
# Experiment: Measurement of agonist activity by assaying changes in intracellular calcium ion level (FLIPR, Fluo-4 NW)
# Assay type: cell-based, human
# Conditions: specific activity of the EC50 of a test compound based on the EC50 of Metastin (45-54), metastin receptor expression CHO cells
# Procedure: 1) Preparation of Human Metastin and Rat Metastin Stable Expression Cell Lines
# Human metastin and rat metastin stable expression cell lines were obtained by transfecting the expression plasmid for animal cells into CHO/dhfr^− cells using CellPhect Transfection Kit (manufactured by GE Healthcare). First, 240 μL of Buffer A (attached to CellPhect Transfection Kit) was added to 9.6 μg of plasmid DNA dissolved in 240 μL of distilled water followed by stirring. After the mixture was settled for 10 minutes, 480 μL of Buffer B (attached to CellPhect Transfection Kit) was added to the mixture, which was vigorously stirred to form liposomes containing the DNA. Then, 4×10^5 CHO/dhfr^− cells (obtained from ATCC) were inoculated on a 60 mm Petri dish. After culturing the cells in Ham's F-12 medium (manufactured by Nissui Seiyaku Co., Ltd.) supplemented with 10% fetal bovine serum (manufactured by BIO […], Inc.) at 37° C. for 2 days in 5% carbon dioxide gas, […] of the liposomes were dropwise added to the cells on the Petri dish. After culturing the cells in a CO2 incubator (5% CO2, 37° C.) for 6 hours, the cells were washed twice with serum-free Ham's F-12 medium and 3 mL of 15% glycerol was added to the cells on the Petri dish followed by treatment for 2 minutes. The cells were again washed twice with serum-free Ham's F-12 medium followed by incubation in Ham's F-12 medium supplemented with 10% fetal bovine serum in a CO2 incubator (5% CO2, 37° C.) for 15 hours. The cells were dispersed by trypsin treatment to recover from the Petri dish. The recovered cells were inoculated on a 6-well plate in 1.25×10^4 cells each/well and incubation was initiated in a CO2 incubator (5% CO2, 37° C.) in Dulbecco's modified Eagle medium (DMEM, manufactured by Nissui Seiyaku) containing 10% dialyzed fetal bovine serum (manufactured by JRH BIOSCIENCES, Inc.). The plasmid-transfected CHO transformants grew in the medium but the non-transfected cells gradually died, accordingly the medium was exchanged on Days 1 and 2 after the initiation of incubation to remove the dead cells. Approximately 20 colonies of the CHO transformants that kept growing on Days 8 to 10 after the incubation were isolated. From the cells in these colonies, cells showing high reactivity with the ligand peptide metastin (hereinafter merely referred to as h175 KB19 and h175 KB29 strains) were selected to provide for the following experiment.
# Human metastin expression CHO cell line (h175 KB19 strain is described in a separate section) and rat metastin expression CHO cell line (h175 KB29 strain is described in a separate section) were seeded in a 96-well plate (type 3904, manufactured by Corning) at 3×10^4 cells/well, followed by incubation in a CO2 incubator (5% CO2, 37° C.) for 24 hours. For the medium, MEMα medium (nucleic acid-free, manufactured by Nikken Bio Medical Laboratory) supplemented with dialyzed 10% fetal bovine serum (manufactured by Thermo, MultiSer) was used.
# 3) Loading with Fluo-4 NW in Cells
# As an assay buffer, 1× Hanks' balanced salt solution (HBSS, manufactured by GIBCO) supplemented with 0.1% BSA, 20 mM HEPES (pH 7.4, manufactured by GIBCO) and 1 mM Probenecid (manufactured by Molecular Probes) was prepared. The medium in the wells of the cell-seeded plate was removed and 100 μL each of the assay buffer (kept warm at 37° C.) was added to each well. After 10 mL of the assay buffer (the volume for assaying two plates) was charged in one Fluo-4NW dye mix (Component A, Fluo-4 NW calcium assay kit (starter pack), manufactured by Molecular Probes) bottle, the mixture was gently stirred to prepare the Fluo-4 NW loading solution. This loading solution was charged in each well by 50 μl each and reacted in a CO2 incubator (5% CO2, 37° C.) for 30 minutes for loading with Fluo-4 NW into the cells. Subsequently, the cells were settled at room temperature (25° C.) for 15 minutes and then used for assay.
# 4) Measurement of Agonist Activity […]
row,Structure (SMILES),Specific Activity
1,"CNC(=N)NCCC[C@H](NC(=O)[C@H](CC(C)C)NC(=O)CNC(=O)[C@H](CC1CCCCC1)NC(=O)[C@@H](NC(=O)[C@H](CC(N)=O)NC(=O)[C@H](CCC(=O)O)NC(=O)[C@@H](Cc1ccc(O)cc1)NC(C)=O)[C@@H](C)O)C(=O)N[C@@H](Cc1c[nH]c2ccccc12)C(N)=O [Compound No. 853, des(1)-Ac-[D-Tyr2,Glu3,Thr5,Cha6,Arg(Me)9,Trp10]MS10] (Ac-[dY]ENT[Cha]GL[Arg(Me)]W-NH2)",0.6
2,"CNC(=N)NCCC[C@H](NC(=O)[C@H](CC(C)C)NC(=O)CNC(=O)[C@H](CC1CC1)NC(=O)[C@@H](NC(=O)[C@H](CC(N)=O)NC(=O)[C@@H]1C[C@@H](O)CN1C(=O)[C@@H](Cc1ccc(O)cc1)NC(C)=O)[C@@H](C)O)C(=O)N[C@@H](Cc1c[nH]c2ccccc12)C(N)=O [Compound No. 855, des(1)-Ac-[D-Tyr2,Hyp3,Thr5,Ala(cPr)6,Arg(Me)9,Trp10]MS10] (Ac-[dY][Hyp]NT[Ala(cPr)]GL[Arg(Me)]W-NH2)",1.9
3,"CNC(=N)NCCC[C@H](NC(=O)[C@H](CC(C)C)NC(=O)CC[C@H](O)[C@H](Cc1ccccc1)NC(=O)[C@@H](NC(=O)[C@H](CC(N)=O)NC(=O)[C@@H]1C[C@@H](O)CN1C(=O)[C@@H](Cc1ccc(O)cc1)NC(C)=O)[C@@H](C)O)C(=O)N[C@@H](Cc1c[nH]c2ccccc12)C(N)=O [Compound No. 857, des(1)-Ac-[D-Tyr2,Hyp3,Thr5,Phe6Ψ((S)CHOH—CH2)Gly7,Arg(Me)9,Trp10]MS10] (Ac-[dY][Hyp]NT[Hexanoyl(5S-NH,4S-OH,6-Ph)]L[Arg(Me)]W-NH2)",1.2
4,"CNC(=N)NCCC[C@H](NC(=O)[C@H](CC(C)C)NC(=O)/C=C/[C@H](O)[C@H](Cc1ccccc1)NC(=O)[C@@H](NC(=O)[C@H](CC(N)=O)NC(=O)[C@@H]1C[C@@H](O)CN1C(=O)[C@@H](Cc1ccc(O)cc1)NC(C)=O)[C@@H](C)O)C(=O)N[C@@H](Cc1c[nH]c2ccccc12)C(N)=O [Compound No. 858, des(1)-Ac-[D-Tyr2,Hyp3,Thr5,Phe6Ψ((S)CHOH—(E)CH=)Gly7,Arg(Me)9,Trp10]MS10] (Ac-[dY][Hyp]NT[X5]L[Arg(Me)]W-NH2)",1.7
5,"CNC(=N)NCCC[C@H](NC(=O)[C@H](CC(C)C)NC(=O)C/C=C/[C@H](Cc1ccccc1)NC(=O)[C@@H](NC(=O)[C@H](CC(N)=O)NC(=O)[C@@H]1C[C@@H](O)CN1C(=O)[C@@H](Cc1ccc(O)cc1)NC(C)=O)[C@@H](C)O)C(=O)N[C@@H](Cc1c[nH]c2ccccc12)C(N)=O [Compound No. 859, des(1)-Ac-[D-Tyr2,Hyp3,Thr5,Phe6Ψ((E)CH═CH)Gly7,Arg(Me)9,Trp10]MS10] (Ac-[dY][Hyp]NT[X7]L[Arg(Me)]W-NH2)",0.7
6,"CNC(=N)NCCC[C@H](NC(=O)[C@H](CC(C)C)NC(=O)/C=C/[C@@H](O)[C@H](Cc1ccccc1)NC(=O)[C@@H](NC(=O)[C@H](CC(N)=O)NC(=O)[C@@H]1C[C@@H](O)CN1C(=O)[C@@H](Cc1ccc(O)cc1)NC(C)=O)[C@@H](C)O)C(=O)N[C@@H](Cc1c[nH]c2ccccc12)C(N)=O [Compound No. 866, des(1)-Ac-[D-Tyr2,Hyp3,Thr5,Phe6Ψ((R)CHOH—(E)CH=)Gly7,Arg(Me)9,Trp10]MS10] (Ac-[dY][Hyp]NT[X2]L[Arg(Me)]W-NH2)",1.4
7,"CNC(=N)NCCC[C@H](NC(=O)[C@H](CC(C)C)NC(=O)CC[C@@H](O)[C@H](Cc1ccccc1)NC(=O)[C@@H](NC(=O)[C@H](CC(N)=O)NC(=O)[C@@H]1C[C@@H](O)CN1C(=O)[C@@H](Cc1ccc(O)cc1)NC(C)=O)[C@@H](C)O)C(=O)N[C@@H](Cc1c[nH]c2ccccc12)C(N)=O [Compound No. 867, des(1)-Ac-[D-Tyr2,Hyp3,Thr5,Phe6Ψ((R)CHOH—CH2)Gly7,Arg(Me)9,Trp10]MS10] (Ac-[dY][Hyp]NT[X3]L[Arg(Me)]W-NH2)",0.8
8,"CNC(=N)NCCC[C@H](NC(=O)[C@H](CC(C)C)NC(=O)CNC(=O)[C@](C)(Cc1ccccc1)NC(=O)[C@@H](NC(=O)[C@H](CC(N)=O)NC(=O)[C@@H]1C[C@@H](O)CN1C(=O)[C@@H](Cc1ccc(O)cc1)NC(C)=O)[C@@H](C)O)C(=O)N[C@@H](Cc1c[nH]c2ccccc12)C(N)=O [Compound No. 869, des(1)-Ac-[D-Tyr2,Hyp3,Thr5,αMePhe6,Arg(Me)9,Trp10]MS10] (Ac-[dY][Hyp]NT[αMeF]GL[Arg(Me)]W-NH2)",3.8
9,"CNC(=N)NCCC[C@H](NC(=O)[C@H](CC(C)C)NC(=O)CNC(=O)[C@H](Cc1ccccc1C)NC(=O)[C@@H](NC(=O)[C@H](CC(N)=O)NC(=O)[C@@H]1C[C@@H](O)CN1C(=O)[C@@H](Cc1ccc(O)cc1)NC(C)=O)[C@@H](C)O)C(=O)N[C@@H](Cc1c[nH]c2ccccc12)C(N)=O [Compound No. 871, des(1)-Ac-[D-Tyr2,Hyp3,Thr5,Phe(2Me)6,Arg(Me)9,Trp10]MS10] (Ac-[dY][Hyp]NT[Phe(2-Me)]GL[Arg(Me)]W-NH2)",0.7
10,"CNC(=N)NCCC[C@H](NC(=O)[C@H](CC(C)C)NC(=O)CNC(=O)[C@H](Cc1cccc(C)c1)NC(=O)[C@@H](NC(=O)[C@H](CC(N)=O)NC(=O)[C@@H]1C[C@@H](O)CN1C(=O)[C@@H](Cc1ccc(O)cc1)NC(C)=O)[C@@H](C)O)C(=O)N[C@@H](Cc1c[nH]c2ccccc12)C(N)=O [Compound No. 873, des(1)-Ac-[D-Tyr2,Hyp3,Thr5,Phe(3Me)6,Arg(Me)9,Trp10]MS10] (Ac-[dY][Hyp]NT[Phe(3-Me)]GL[Arg(Me)]W-NH2)",0.8
11,"CNC(=N)NCCC[C@H](NC(=O)[C@H](CC(C)C)NC(=O)CNC(=O)[C@H](Cc1ccc(C)cc1)NC(=O)[C@@H](NC(=O)[C@H](CC(N)=O)NC(=O)[C@@H]1C[C@@H](O)CN1C(=O)[C@@H](Cc1ccc(O)cc1)NC(C)=O)[C@@H](C)O)C(=O)N[C@@H](Cc1c[nH]c2ccccc12)C(N)=O [Compound No. 875, des(1)-Ac-[D-Tyr2,Hyp3,Thr5,Phe(4Me)6,Arg(Me)9,Trp10]MS10] (Ac-[dY][Hyp]NT[Phe(4-Me)]GL[Arg(Me)]W-NH2)",0.9
12,"CNC(=N)NCCC[C@H](NC(=O)[C@H](CC(C)C)NC(=O)CNC(=O)[C@H](Cc1ccccc1)NC(=O)[C@@H](NC(=O)[C@H](CNC(N)=O)NC(=O)[C@@H]1C[C@@H](O)CN1C(=O)[C@@H](Cc1ccc(O)cc1)NC(C)=O)[C@@H](C)O)C(=O)N[C@@H](Cc1c[nH]c2ccccc12)C(N)=O [Compound No. 885, des(1)-Ac-[D-Tyr2,Hyp3,Alb4,Thr5,Arg(Me)9,Trp10]MS10] (Ac-[dY][Hyp][Dap(CONH2)]TFGL[Arg(Me)]W-NH2)",0.5
13,"CNC(=N)NCCC[C@H](NC(=O)[C@@H](/C=C/CNC(=O)[C@H](Cc1ccccc1)NC(=O)[C@@H](NC(=O)[C@H](CC(N)=O)NC(=O)[C@@H]1C[C@@H](O)CN1C(=O)[C@@H](Cc1ccc(O)cc1)NC(C)=O)[C@@H](C)O)CC(C)C)C(=O)N[C@@H](Cc1c[nH]c2ccccc12)C(N)=O [Compound No. 892, des(1)-Ac-[D-Tyr2,Hyp3,Thr5,Gly7Ψ((E)CH═CH)Leu8,Arg[(Me)9,Trp10]MS10] (Ac-[dY][Hyp]NTF[Glyψ(E-CHCH)Leu][Arg(Me)]W-NH2)",0.6
14,"CNC(=N)NCCC[C@H](NC(=O)[C@@H](CCCNC(=O)[C@H](Cc1ccccc1)NC(=O)[C@@H](NC(=O)[C@H](CC(N)=O)NC(=O)[C@@H]1C[C@@H](O)CN1C(=O)[C@@H](Cc1ccc(O)cc1)NC(C)=O)[C@@H](C)O)CC(C)C)C(=O)N[C@@H](Cc1c[nH]c2ccccc12)C(N)=O [Compound No. 893, des(1)-Ac-[D-Tyr2,Hyp3,Thr5,Gly7Ψ((E)CH2CH2)Leu8,Arg(Me)9,Trp10]MS10] (Ac-[dY][Hyp]NTF[X1][Arg(Me)]W-NH2)",0.8

# — patent publication US7786083B2, “Metastin derivatives and use thereof” (Takeda Pharmaceutical Company Limited, priority 2006, dated 2010)
